Where a chain is given by its changes, count along the chain named. Names and notes keep the numbering of the source. Strand notation (5' to 3'): a small letter for the sugar, then the base; units joined by * are phosphorothioate-linked, units joined directly phosphodiester-linked; [ ] holds rarer units or linkages, { } end groups; capitals alone tell only the bases. e = 2'-O-(2-methoxyethyl) (MOE); [5mC] = 5-methylcytosine; d = 2'-deoxy (DNA)

Series [1] has as its system human RNase H1. The series is described as follows: Screen of antisense compounds (gapped oligonucleotides, siRNA) in cells against human RNase H1. The conditions noted are these: percent inhibition of RNase H enzyme levels; target H1. The series is classed as cell-based. On the set-up: concentration or dose not given beside the values. How it is done: (§1) Oligonucleotides were identified by screening in cells (Crooke, S. T., 2003, in Burger's Medicinal Chemistry, 6th ed., pp 115-166; Vickers et al., 2003, J. Biol. Chem. 278, 7108-7118).
(§2) For this experiment oligoribonucleotides were purchased from Dharmacon Research, Inc. (Boulder Colo.). siRNA duplexes were formed in the solution containing 20 μM each oligoribonucleotide (sense strand shown and antisense strand complement—generally with a one base overhang at each end), 100 mM potassium acetate, 30 mM HEPES-KOH pH 7.4, 2 mM magnesium acetates. Reactions were heated for 1 minute at 90° C. and incubated for 1 hour at 37° C. The control gapped antisense oligonucleotide, is ISIS 29848, […] (SEQ ID NO: 104), where N is a mixture of A, G, C and T. Bold residues are 2′-MOE residues. The siRNA controls are either the single strand sense RNA strand or other RNA duplexes that are not complementary to the target. For transfection of cells, cells were incubated with a mixture of 3 μg/ml lipofectin (Invitrogen, Carlsbad Calif.) per 1-200 nM oligonucleotide or siRNA in OptiMEM medium (Invitrogen). After 4 hours the transfection mixture was aspirated from the cells and replaced with fresh medium containing 10% fetal bovine serum and the cells were incubated at 37° C. in 5% CO2 until harvest or second transfection.

Series [2] concerns human RNase H2. The series is described as follows: Antisense inhibition of human RNase H2 expression, Northern blot. The series is classed as cell-based. On the set-up: % of control / % inhibition: concentration or dose not given beside the values. The conditions noted are these: for % inhibition / % of control: RNase H2 expression, Northern blot. The protocol:
Total RNA was isolated from different human cell lines (ATCC, Rockville, Md.) using the guanidine isothiocyanate method (21). Ten μg of total RNA was separated on a 1.2% agarose/formaldehyde gel and transferred to Hybond-N+ (Amersham, Arlington Heights, Ill.) followed by fixing using UV crosslinker (Strategene, La Jolla, Calif.). The premade multiple tissue Northern Blot membranes were also purchased from Clontech (Palo Alto, Calif.). To detect RNase H2 mRNA, hybridization was performed by using ^32P-labeled human RNase H II cDNA in Quik-Hyb buffer (Strategene, La Jolla, Calif.) at 68 EC for 2 hours. After hybridization, membranes were washed in a final stringency of 0.1×SSC/0.1% SDS at 60 EC for 30 minutes and subjected to auto-radiography.
A series of antisense oligonucleotides were targeted to the human RNase H2 polynucleotide sequence (SEQ ID NO: 11). These compounds were all 2′-O-methoxyethyl “gapmers” with an 8-nucleotide deoxy gap and a phosphorothioate backbone. Cytosine residues are 5-methyl cytosines. The 2′-O-methoxyethyl (2′MOE) nucleotides are shown in bold.
The oligonucleotides shown in Table 2 were tested by Northern blot analysis for their ability to inhibit expression of human RNase H2. Results are expressed in Table 3.

Series [3] deals with human RNase H2. The series is described as follows: Screen of antisense compounds (gapped oligonucleotides, siRNA) in cells against human RNase H2. The format is cell-based. On the set-up: concentration or dose not given beside the values. The settings on record: percent inhibition of RNase H enzyme levels; target H2. How it is done: as §1, §2
The test system of series [4] is 17 nucleotide long RNA/DNA heteroduplex. The series is described as follows: Initial cleavage rates of RNA/DNA heteroduplex by wild-type and mutant human RNase H1 proteins. The format is biochemical. The conditions noted are these: 0.5 ng enzyme, 37° C., average of n≧3; detection limit = <1% of heteroduplex substrate cleaved over 60 min. The source says:
The oligoribonucleotides were synthesized on a PE-ABI 380B synthesizer using 5′-O-silyl-2′-O-bis(2-acetoxyethoxy)methyl ribonucleoside phosphoramidites and procedures described elsewhere. Scaringe et al., 1998, J. Am. Chem. Soc. 120, 11820-11821/The oligoribonucleotides were purified by reverse-phase HPLC. The DNA oligonucleotides were synthesized on a PE-ABI 380B automated DNA synthesizer and standard phosphoramidite chemistry. The DNA oligonucleotides were purified by precipitation 2 times out of 0.5 M NaCl with 2.5 volumes of ethyl alcohol.
The RNA substrate is 5′-end-labeled with ^32P using 20 u of T4 polynucleotide kinase (Promega, Wis.), 120 pmol (7000 Ci/mmol) [γ-^32P]ATP (ICN, CA), 40 pmol RNA, 70 mM tris, pH 7.6, 10 mM MgCl2 and 50 mM DTT. The kinase reaction is incubated at 37° C. for 30 min. The labeled oligoribonucleotide was purified by electrophoresis on a 12% denaturing polyacrylamide gel. The specific activity of the labeled oligonucleotide is approximately 3000 to 8000 cpm/fmol.
The heteroduplex substrate was prepared in 100 μL containing 50 nM unlabeled oligoribonucleotide, 10^5 cpm of ^32P labeled oligoribonucleotide, 100 nM complementary oligodeoxynucleotide and hybridization buffer [20 mM tris, pH 7.5, 20 mM KCl]. Reactions were heated at 90° C. for 5 min, cooled to 37° C. and 60 u of Prime RNase Inhibitor (5 Prime→3 Prime, CO) and MgCl2 at a final concentration of 1 mM were added. Hybridization reactions were incubated 2-16 h at 37° C. and β-mercaptoethanol (BME) was added at final concentration of 20 mM.
The heteroduplex substrate was digested with 0.5 ng human RNase H1 at 37° C. A 10 μl aliquot of the cleavage reaction was removed at time points ranging from 2-120 min and quenched by adding 5 μL of stop solution (8 M urea and 120 mM EDTA). The aliquots were heated at 90° C. for two min, resolved in a 12% denaturing polyacrylamide gel and the substrate and product bands were quantitated on a Molecular Dynamics PhosphorImager. The concentration of the converted product was plotted as a function of time. The initial cleavage rate was obtained from the slope (mole RNA cleaved/min) of the best-fit line for the linear portion of the plot, which comprises, in general <10% of the total reaction and data from at least five time points.
The initial cleavage rates (V0) were determined for the human RNase H1 enzyme and the mutant proteins using a 17 nucleotide long RNA/DNA heteroduplex, (Table 5).
Initial cleavage rates were determined as described in above. The initial cleavage rates are an average of n≧3 measurements. *Detection limit=cleavage rates resulting in <1% of the heteroduplex substrate over 60 min.

Series [5] deals with T1, human RNase H1 (Homo sapiens, UniProt O60930).
T1 construct: made in house; host or cells: E. coli BL21(DE3), vector pET17b
T1 sequence (O60930 1-286): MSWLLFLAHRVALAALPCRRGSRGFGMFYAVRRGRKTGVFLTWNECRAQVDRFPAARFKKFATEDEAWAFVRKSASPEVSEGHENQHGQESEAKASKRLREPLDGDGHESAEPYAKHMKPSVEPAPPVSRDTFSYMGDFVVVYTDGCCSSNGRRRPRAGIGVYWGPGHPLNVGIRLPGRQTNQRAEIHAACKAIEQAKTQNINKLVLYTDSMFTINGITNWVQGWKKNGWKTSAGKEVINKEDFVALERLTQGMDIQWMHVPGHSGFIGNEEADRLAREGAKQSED
The series is described as follows: Competitive inhibition of wild-type human RNase H1 cleavage by inactive mutant proteins. The series is classed as biochemical. The settings on record: 2.5 ng mutant, 250 pg wild-type enzyme. The protocol: These experiments were performed with the […] and with the concentration of the mutant protein in excess of the wild-type enzyme concentration. Competition experiments were performed as described for the determination of initial rates with the exception that 20 nM oligodeoxynucleatide, 10 nM oligoribonucleotide and 2.5 ng of the mutant RNase H1 protein. Reactions were digested with 250 pg of wild-type Human RNase H. The reactions were quenched, analyzed and quantitated as described for the determination of initial rates.

“TGCAGGCTATTTTCCACACC (2'-MOE gapmer, further chemistry not given here) [ISIS 18186, DNA-like gapped 2′-MOE oligonucleotide against human RNase H1, 3′UTR]”: in the series on human RNase H1 [1], the “% Inhib” value worked out at 86.8%.
Still for that read-out and setting: with “CCTCCGATTCTTGTCCATGT (chemistry not fully specified) [ISIS 18178, DNA-like gapped 2′-MOE oligonucleotide against human RNase H1, coding]” the figure was 64.6%; with “GCGCTTAACACCGCACTTCC (chemistry not fully specified) [ISIS 18173, DNA-like gapped 2′-MOE oligonucleotide against human RNase H1, 5′UTR]”, 30.1%.
With “CATCGCTCACTCCCGGCACC (chemistry not fully specified) [ISIS 18174, DNA-like gapped 2′-MOE oligonucleotide against human RNase H1, start codon]”, in the series on human RNase H1 [1], the “% Inhib” value is given as 51.4%.
On to “TGGCTCAAGTTCTCCCAAGG (chemistry not fully specified) [ISIS 18184, DNA-like gapped 2′-MOE oligonucleotide against human RNase H1, 3′UTR]”, for which the “% Inhib” value in the series on human RNase H1 [1] is reported as 78.9%.
One may read the % inhibition as how much of the control response was suppressed. Regarding “TTTTGTCTTGGGATCATTGG (eT*eT*eT*eT*eG*eT*d[5mC]*dT*dT*dG*dG*dG*dA*dT*e[5mC]*eA*eT*eT*eG*eG) [ISIS 21956]”, in the series on human RNase H2 [2], the “% inhibition” value was 63% and the “% of control” value was determined as 37%. Moreover, in the series on human RNase H2 [2] (summary of Table 3), the “inhibition of human RNase H2 expression” value is “at least 50%”. In addition, the “% Inhib” value with human RNase H2 [3] stood at 63.1%.
In the case of “CCTCATCCTCTGTGGCAAAC (chemistry not fully specified) [ISIS 18177, DNA-like gapped 2′-MOE oligonucleotide against human RNase H1, coding]”, the “% Inhib” value in the series with human RNase H1 [1] is listed as 71.9%.
In the case of “GCACACTCCCACCTTGCTTC (chemistry not fully specified) [ISIS 21961, 2′-O-methoxyethyl gapmer, 8-nucleotide deoxy gap, phosphorothioate backbone, targeted to human RNase H2]”, in the series on human RNase H2 [2], the “% inhibition” value was determined as 7% and the “% of control” value is listed as 93%. The “% Inhib” value with human RNase H2 [3] is recorded as 6.1%.
For the molecule “CGCCCAGGAAGTCTAATGCC (chemistry not fully specified) [ISIS 18180, DNA-like gapped 2′-MOE oligonucleotide against human RNase H1, coding]”, in the series with human RNase H1 [1], the “% Inhib” value was found to be 73.9%.
Same read-out and setting: with “TCTTCCAACCTTGAACCCAG (chemistry not fully specified) [ISIS 18182, DNA-like gapped 2′-MOE oligonucleotide against human RNase H1, coding]” the figure was 42.8%; with AAGCCGAGCGUGGAGCCGGCG [Si-H1B], 77.2%.
For the molecule “RNase H1[E186Q]: human RNase H1 mutant, glutamine substitution of glutamic acid at position 186”, in series [4], the V0 entry is given as “below detection limit”.

B1: RNase H1[D145N]: human RNase H1 mutant, asparagine substitution of aspartic acid at position 145 (protein, UniProt O60930 1-286, looked up, variant D145N)
Ribonuclease H1: T1 sequence (O60930 1-286) with D145N
On to B1, for which the V0 result in series [4] is reported as “below detection limit”. For the same molecule, in the series with human RNase H1 [5], the “initial cleavage rate of human RNase H1 alone faster than in presence of mutant” value is reported as 6 fold.

B2: RNase H1[K226, 227, 231, 236A]: human RNase H1 mutant, alanine substitution of lysine at positions 226, 227, 231 and 236 (protein, UniProt O60930 1-286, looked up, variant K226A K227A K231A K236A)
Ribonuclease H1: T1 sequence (O60930 1-286) with K226A, K227A, K231A, K236A
For the molecule B2, the V0 result in series [4] is given as “below detection limit”. Also, the “initial cleavage rate of human RNase H1 in presence of mutant slower than alone” value in the series with human RNase H1 [5] was “approximately 60%”.

B3: RNase H1[D210N]: human RNase H1 mutant, asparagine substitution of aspartic acid at position 210 (protein, UniProt O60930 1-286, looked up, variant D210N)
Ribonuclease H1: T1 sequence (O60930 1-286) with D210N
Consider B3, for which, in series [4], the V0 entry is reported as “below detection limit”.

B4: RNase H1[K226, 227A]: human RNase H1 mutant, alanine substitution of lysine at positions 226 and 227 (protein, UniProt O60930 1-286, looked up, variant K226A K227A)
Ribonuclease H1: T1 sequence (O60930 1-286) with K226A, K227A
B4: in series [4], the V0 came to 8.1 ± 0.2 pM/min.
